Patent US8034826B2, “Cycloalkane[B]azaindole antagonists of prostaglandin D2 receptors” (Panmira Pharmaceuticals, LLC, priority 2008, dated 2011)

Assays:
[1] = Plasma concentrations of the compound in mice of the allergic rhinitis model; assay type: in vivo; conditions: female, BALB/c, mouse, 10 mg/kg as the sodium salt, oral
Experimental: The compounds ability to inhibit allergen-induced sneezing and nasal rubbing is assessed using a mouse model of allergic rhinitis. Methods were adapted from those detailed in Nakaya, M., et al. 2006, Laboratory Investigation, 86:917-926. Female BALB/c mice (20-25 g) are immunized by an intraperitoneal injection (i.p.) of 10 μg ovalbumin (OVA) complexed with alum in a volume 0.2 mL on days 0 and 7. Fourteen days later (day 21) mice are challenged intranasally with 20 μl of a 10 mg/mL solution of OVA. The challenge period occurs daily from days 21 to day 23. Mice (5-7/group) are randomly assigned to receive either compound or vehicle and are treated by oral gavage 1 hour prior to OVA challenge. The number of sneezes and nasal rubs are counted by an independent blinded observe during a period of 8 minutes immediately following OVA challenge on days 21, 23 and […]. A significant increase in allergen-induced sneezing and nasal rubbing occurs over the 3-day challenge period. Inhibition of this effect by select compounds is determined statistically using Graphpad prism.

human DP2 receptor = molecular target: T1, human DP2 receptor (Homo sapiens, UniProt Q9Y5Y4); test: DP2/CRTH2 radioligand binding assay using [3H]PGD2; conditions: membranes of HEK293 cells expressing recombinant human DP2, 1 nM [3H]PGD2; read-out: hDP2
T1 construct: expressed in transfected cells
T1 sequence (Q9Y5Y4 1-395): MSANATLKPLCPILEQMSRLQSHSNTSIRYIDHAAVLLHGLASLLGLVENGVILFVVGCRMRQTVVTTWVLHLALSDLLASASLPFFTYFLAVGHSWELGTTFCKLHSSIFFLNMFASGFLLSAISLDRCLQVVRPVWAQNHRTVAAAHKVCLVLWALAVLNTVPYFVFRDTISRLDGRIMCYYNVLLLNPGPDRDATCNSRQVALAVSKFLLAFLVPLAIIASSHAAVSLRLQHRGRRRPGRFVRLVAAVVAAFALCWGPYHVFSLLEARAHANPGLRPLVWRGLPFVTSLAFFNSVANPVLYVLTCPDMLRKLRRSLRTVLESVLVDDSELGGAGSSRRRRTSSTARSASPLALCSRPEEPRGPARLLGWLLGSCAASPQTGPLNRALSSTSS
Experimental: The ability of a compound to bind to the human DP2 receptor is assessed via a radioligand binding assay using [^3H]PGD2. HEK293 cells stably expressing recombinant human DP2 are resuspended in 10 mM Hepes, 7.4 containing 1 mM DTT, lysed and centrifuged at 75,000×g to pellet the membranes. The membranes are resuspended in 10 mM Hepes, 7.4 containing 1 mM DTT and 10% glycerol to approximately 5 mg protein/ml. Membranes (2-10 μg protein/well) are incubated in 96-well plates with 1 nM [^3H]PGD2 and test compound in Assay Buffer (50 mM Hepes, 10 mM MnCl2, 1 mM EDTA, plus or minus 0.2% human serum albumin, pH 7.4) for 60 minutes at room temperature. The reactions are terminated by rapid filtration through Whatman GF/C glass fibre filter plates. The filter plates were pre-soaked in 0.33% polyethylenimine for 30 minutes at room temperature then washed in Wash Buffer (50 mM Hepes, 0.5 M NaCl pH 7.4) prior to harvesting. After harvesting, the filter plates are washed 3 times with 1 ml cold Wash Buffer then dried. Scintillant is then added to the plates and the radioactivity retained on the filters is determined on a Packard TopCount (Perkin Elmer). Specific binding is determined as total radioactive binding minus non-specific binding in the presence of 10 μM PGD2. IC50s were determined using GraphPad prism analysis of drug titration curves.

Cmax [1] | concentration at 8 h ([1]; at 8 hours, read-out: Plasma Cmin at 8 hours) | IC50 (human DP2 receptor) | SMILES
770 nM | 120 nM |  | CN(C1CCc2c(c3ncccc3n2CC(=O)O)C1)S(=O)(=O)c1ccc(F)cc1 (racemic) [Compound 2, {8-[(4-fluoro-benzenesulfonyl)-methyl-amino]-6,7,8,9-tetrahydro-pyrido[3,2-b]indol-5-yl}-acetic acid]
 |  | > 100 nM | O=C(O)CCn1c2c(c3ccccc31)C[C@H](NS(=O)(=O)c1ccc(F)cc1)CC2 [Ramatroban]
